Where two headings read alike, the source gives them in different places.
What was measured:
[1] = test system: U-87 MG GBM (glioblastoma) cells; test: Growth of glioblastoma cells in vitro, Alamar Blue; assay type: cell-based; conditions: Homo sapiens, 72 h, U87-MG cells, three days, normalized to DMSO-treated wells, three independent experiments
Protocol: FIG. 4 depicts the effects of two compounds active in NF1−/− MPNST cells on the growth of U-87 MG GBM (glioblastoma) cells in vitro. FIG. 4a depicts the effects of the compound of Formula I(a); FIG. 4b depicts the effects of the compound of Formula IV(c). U87-MG cells were seeded in 96 well plates at a density of 1000 per well in DMEM containing 10% fetal bovine serum. The next day, medium was removed and fresh medium containing 0.1% DMSO or compound was added back. Plates were incubated for three days at 37° C., 5% CO2. Cell growth was assessed with Alamar Blue with values normalized to the DMSO-treated wells. Values are mean of three wells. The AC50 for the compound of Formula Ia was 3.77 micromolar +/−0.7. The AC50 for the compound of Formula IV(c) was 0.97 micromolar +/−0.1. AC50 was calculated using data from three independent experiments.

[2] = test system: cells lacking Ira2 and Erg6; test: Growth of strains lacking Ira2 and Erg6, optical density at 595 nm; assay type: cell-based; conditions: Synthetic Complete media, 32C, 24 h, OD 595 nm
Protocol: FIG. 3. […] Strains were grown overnight in Synthetic Complete media. 75 μL of culture at a starting optical density of 0.1 were added to a 96 well plate containing 75 μL of Synthetic Complete media with twice the desired final concentration of compound in 1% DMSO. Plates were incubated in a humidified 32C chamber, and scanned on an optical density plate reader at 595 nm after 24 h. The bars represent the mean of three wells, and the error bars represent ±2× standard error.

[3] = test system: T265 (NF1 mutant MPNST/sarcoma cells); test: In vitro growth of NF1 mutant MPNST cells, alamar blue, dose-response; assay type: cell-based; conditions: Homo sapiens
Protocol: (§1) The NF1−/− MPNST line T265 used for the screen provides two additional readouts for the chemical approaches to suppress the phenotypes of NFI loss: activated Ras (Mahller et al., 2005) and activated MAPK (FIG. 1). In vitro growth assays of the two cell lines (NF1 positive and NF1 negative) are scaled down to 384 well plates. An Evotec Technologies plate::explorer uHTS system is used. MPNST cell lines T265 and STS26T in logarithmic growth phase are plated in separate 384 well plates at a density of 500 cells per well in Dulbecco's modified Eagle's medium (DMEM; Fisher Scientific; Pittsburgh, Pa.) supplemented with 10% Fetal Bovine Serum (Harlan; Indianapolis, Ind.) containing vehicle (DMSP, “Dimethyl Sulfoxide”) only or one of 13,031 candidate compounds at a concentration of 10 micromolar, a concentration of drug shown not to cause cell death of many human cell lines. The candidate compounds are selected to represent a cross section of compounds covering the diversity space resident in the available library, restricted to drug-like compounds, but evenly and consistently representative across this realm and representative of commercially available compounds. Compounds targeting GPCRs, kinases and other targets of known medical interest are also included. The cells are incubated with the compounds or 5 μg/ml doxorubicin as a positive control for 2 days. Growth is monitored by using the alamar blue method (Alley et al. 1988; Ahmed et al. 1994.) Metabolic activity of cells results in reduction of alamar blue and a large increase in alamar blue fluorescence, which correlates with cell number. Candidate compounds causing interference with fluorescence are eliminated. […] Appropriate control samples and statistical analyses are used.
(§2) Confirmed hits that decreased viability of both cell lines were identified as possible therapeutic agents. A smaller population of hits selectively affected the non-NF1 cell line. These seven confirmed “hits,” or potential therapeutic agents, were tested using the same assay method at 10 concentrations, in triplicate, to give a dose-response and to determine the AC50 (the concentration at which 50% of the maximum activity or inhibition is achieved) for each compound. Using the initial screen, seven compounds are identified showing a significant differential growth inhibition of the mutant NF1 cells relative to wild type NF1 cells.

[4] = test system: STS26T (26T, NF1 wild type MPNST/sarcoma cells); test: In vitro growth of NF1 wild type MPNST cells, alamar blue, dose-response; assay type: cell-based, human; conditions: for IC50: Homo sapiens, STS-26T
Protocol: as §1, §2

[5] = 48 h, Table 3, T265 cells, alamar blue, 2 days, 10 concentrations in triplicate, read-out: T265 IC50
[6] = Table 4, NF1 mutant sarcoma cells (T265), read-out: IC50, T265
[7] = 48 h, Table 3, STS26T cells, alamar blue, 2 days, 10 concentrations in triplicate, read-out: 26T IC50
[8] = Table 4, NF1 wild type (26T) sarcoma cells, read-out: IC50, 26T

Compound	IC50 [3, 5] [µM]	IC50 [3, 6] [µM]	IC50 [4, 7] [µM]	IC50 [4, 8] [µM]	26T IC50 ([4]; Table 3, STS26T cells, alamar blue, 2 days, 10 concentrations in triplicate)	AC50 [1] [µM]	Inhibition of growth [2]
Cc1ccc(NC(=O)C2=C(c3ccccc3)S(=O)(=O)CCS2(=O)=O)cc1 [Formula IV(c)]						0.97	
N=C(N)SCc1cn(-c2ccccc2)nc1-c1cccc(Br)c1 [Formula Ia]	1.3	1.3	50.3	50.3		3.77	Inhibition of growth
Cc1ccc(Cn2c(=N)n(CC(O)c3ccc(Br)cc3)c3ccccc32)cc1 (centres unmarked) [VIII]	1.1	1.1	19.5	19.5			
Cc1ccc(Cn2c(=N)n(CC(=O)c3ccc(Br)cc3)c3ccccc32)cc1 [VII]	0.078		0.056				

Further lines, with some results ahead:

IC50 [3, 5] [µM]	IC50 [3, 6] [µM]	IC50 [4, 7] [µM]	IC50 [4, 8] [µM]	26T IC50 ([4]; Table 3, STS26T cells, alamar blue, 2 days, 10 concentrations in triplicate)	Compound	AC50 [1] [µM]	Inhibition of growth [2]
3				No Effect	CCCCc1ccc2nc(-c3ccccc3)cc(C(=O)NC(C(=O)NC(C)CCCN(CC)CC)C(C)C)c2c1 (centres unmarked) [III]		
4.5		1.9			CCc1cc(-c2ccccc2OS(=O)(=O)c2ccc3ccccc3c2)nn1CCNCCOc1ccccc1 [VI]		
2.8	2.9	22.8	22.9		CCc1cc(-c2ccccc2OS(=O)(=O)c2ccc3ccccc3c2)nn1CCNCCc1ccc(OC)c(OC)c1 [V]		
1.7		1			CCN(CC)C(=S)SCC(=O)n1c(C)cc(-c2ccccc2F)c1C [XI]		

— patent publication US20130345268A1, “Methods and Compositions for the Treatment of RAS Associated Disorders” (The Trustees of Dartmouth College, priority 2009, published 2013)
